Measurements: ChEMBL document CHEMBL1201862, “PubChem BioAssay data set” (2004)
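Step 1: Grow cells in 96-well plates. Step 2: Expose to compound for 48 hours at 5 concentrations. Step 3: Interpolate endpoints linearly; if unreached, use highest concentration. At the GI50, growth is halved.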 Active and inactive are the calls of the source. Rule as the data show it: active = GI50 up to about 1.1 µM and inactive = higher.

Tests used:
Test in all cases: DTP human tumour cell line panel, 48 h
[1] = tested on: 786-0
[2] = tested on: BT-549
[3] = tested on: CCRF-CEM
[4] = tested on: DU-145
[5] = tested on: HCC 2998
[6] = tested on: HCT-116
[7] = tested on: HCT-15
[8] = tested on: HOP-92
[9] = tested on: LOX IMVI
[10] = tested on: MCF7
[11] = tested on: MDA-MB-435
[12] = tested on: MOLT-4
[13] = tested on: NCI/ADR-RES
[14] = tested on: OVCAR-5
[15] = tested on: OVCAR-8
[16] = tested on: PC-3
[17] = tested on: SF-539
[18] = tested on: SK-MEL-28
[19] = tested on: SK-OV-3
[20] = tested on: SR

Measured: GI50

CN(C)CCNC(=O)c1ccc(NCCCN(C)CCCNc2ccc(C(=O)NCCN(C)C)c3nc4ccc([N+](=O)[O-])cc4c(O)c23)c2c(O)c3cc([N+](=O)[O-])ccc3nc12
0.368 µM: [7]
inactive: [13] 1.23 µM
active: [1] < 0.0197 µM | [2] 0.447 µM | [3] < 0.01 µM | [4] < 0.0272 µM | [5] 0.0347 µM | [6] < 0.01 µM | [8] 0.0431 µM | [9] < 0.01 µM | [10] < 0.01 µM | [11] 0.0861 µM | [12] < 0.01 µM | [14] 0.158 µM | [15] < 0.01 µM | [16] < 0.01 µM | [17] 0.0186 µM | [18] 0.157 µM | [19] 0.232 µM | [20] 0.0311 µM

COC(=O)c1sc2c(c1C(=O)OC)/C(=N/C(C)(C)C)S/C2=N\C(C)(C)C
17.2 µM: [7]
inactive: [1] 15 µM | [2] 19 µM | [3] 15.6 µM | [4] 15.5 µM | [5] 14.8 µM | [6] 15.6 µM | [8] 18.7 µM | [9] 19.5 µM | [10] 17.7 µM | [11] 18.4 µM | [12] 15.1 µM | [13] 19.8 µM | [14] 20.6 µM | [15] 19.5 µM | [16] 19.1 µM | [17] 16.6 µM | [18] 17.3 µM | [19] 25.4 µM | [20] 13.4 µM

O=C(O)c1cc2ccccc2c2c1C(=O)c1ccccc1-2
92 µM: [7]
inactive: [1] > 100 µM | [2] > 100 µM | [3] > 100 µM | [4] > 100 µM | [5] > 100 µM | [6] > 100 µM | [8] 50.2 µM | [9] > 100 µM | [10] 98.9 µM | [11] > 100 µM | [12] > 100 µM | [13] > 100 µM | [14] > 100 µM | [15] > 100 µM | [16] > 100 µM | [17] > 100 µM | [18] 58.3 µM | [19] 56.6 µM | [20] 99.8 µM

COc1cc(/C=C/C(=N\NC(=S)NN)c2sc(NNC(C)=O)nc2C)ccc1O
> 100 µM: [7]
inactive: [1] > 100 µM | [2] > 100 µM | [3] > 100 µM | [4] > 100 µM | [5] > 100 µM | [6] > 100 µM | [8] > 100 µM | [9] > 100 µM | [10] > 100 µM | [11] > 100 µM | [12] > 100 µM | [13] > 100 µM | [14] > 100 µM | [15] > 100 µM | [16] > 100 µM | [17] > 100 µM | [18] > 100 µM | [19] > 100 µM | [20] > 100 µM

CCCCCCCCCCCCCCCCNc1ccn(C2CC(O)C(COC(c3ccccc3)(c3ccccc3)c3ccc(OC)cc3)O2)c(=O)n1 (centres undefined)
> 100 µM: [7]
inactive: [1] > 100 µM | [2] > 100 µM | [3] 67.8 µM | [4] > 100 µM | [5] 83.6 µM | [6] 93.5 µM | [8] > 100 µM | [9] > 100 µM | [10] > 100 µM | [11] > 100 µM | [12] 49.3 µM | [13] > 100 µM | [14] > 100 µM | [15] > 100 µM | [16] > 100 µM | [17] > 100 µM | [18] > 100 µM | [19] > 100 µM | [20] 98.4 µM

O=c1onc2c3ccccc3ncn12
> 100 µM: [7]
inactive: [1] > 100 µM | [2] > 100 µM | [3] > 100 µM | [4] > 100 µM | [5] > 100 µM | [6] > 100 µM | [8] > 100 µM | [9] > 100 µM | [10] > 100 µM | [11] > 100 µM | [12] > 100 µM | [13] > 100 µM | [14] > 100 µM | [15] > 100 µM | [16] > 100 µM | [17] > 100 µM | [18] > 100 µM | [19] > 100 µM | [20] > 100 µM

C[C@]12CC[C@H](O)CC1=CC[C@@H]1[C@@H]2CC[C@]2(C)c3nc(Cl)ccc3C[C@@H]12
9.46 µM: [7]
inactive: [1] 30.1 µM | [2] 26.1 µM | [3] 8.17 µM | [4] > 100 µM | [5] > 58.1 µM | [6] 47 µM | [8] > 100 µM | [9] 57.1 µM | [10] > 64.7 µM | [11] 6.76 µM | [12] 8.45 µM | [13] 29.5 µM | [14] > 80.9 µM | [15] 62.5 µM | [16] 74.3 µM | [17] 14.9 µM | [18] > 64.1 µM | [19] 42.7 µM | [20] 11.4 µM

Cc1cc(NS(=O)(=O)c2ccc(NC(=O)c3ccc4[nH]c5ccccc5c(=O)c4c3)cc2)no1
> 100 µM: [7]
inactive: [1] > 100 µM | [2] > 100 µM | [3] 40.9 µM | [4] > 100 µM | [5] 85.3 µM | [6] > 100 µM | [8] 88.3 µM | [9] 46.5 µM | [10] > 100 µM | [11] > 100 µM | [12] 49.8 µM | [13] > 100 µM | [14] > 100 µM | [15] > 100 µM | [16] > 100 µM | [17] 68.1 µM | [18] > 100 µM | [19] > 100 µM | [20] > 100 µM

C#CC1NC(=O)C1N(CC)CC (centres undefined)
inactive: [1] > 100 µM | [2] > 100 µM | [3] > 100 µM | [4] > 100 µM | [5] > 100 µM | [6] > 100 µM | [8] > 100 µM | [9] > 100 µM | [10] > 100 µM | [11] > 100 µM | [12] > 100 µM | [13] > 100 µM | [14] > 100 µM | [15] > 100 µM | [16] > 100 µM | [17] > 100 µM | [18] > 100 µM | [19] > 100 µM | [20] > 100 µM
> 100 µM: [7]

Cc1ccc(S(=O)(=O)N/N=C2/CC[C@H](C(C)(C)C)C[C@@H]2C)cc1
inactive: [1] 17.1 µM | [2] 16.2 µM | [3] 15.8 µM | [4] 15.2 µM | [5] 18.9 µM | [6] 14.8 µM | [8] 16.7 µM | [9] 14.7 µM | [10] 18.5 µM | [11] 16 µM | [12] 12.5 µM | [13] 15 µM | [14] 18.2 µM | [15] 16 µM | [16] 18.3 µM | [17] 18.2 µM | [18] 17 µM | [19] 18.4 µM | [20] 31.8 µM
16.6 µM: [7]

COc1ccc(/C=c2/[nH]c(=O)/c(=C\c3ccc(OCc4ccccc4)cn3)[nH]c2=O)cc1
inactive: [1] 49.9 µM | [2] 45.3 µM | [3] 13.9 µM | [4] > 100 µM | [5] > 100 µM | [6] 48 µM | [8] 23.2 µM | [9] 82.4 µM | [10] 46 µM | [11] 19.9 µM | [12] 43.6 µM | [13] 58.1 µM | [14] > 100 µM | [15] 98.2 µM | [16] > 100 µM | [17] 32.4 µM | [18] > 100 µM | [19] 55 µM | [20] 20.8 µM
38.6 µM: [7]

ClCCN(CCCl)c1ccc(CNCCCNCc2ccc(N(CCCl)CCCl)cc2)cc1
2.47 µM: [7]
inactive: [1] 2 µM | [2] 3.38 µM | [3] 2.78 µM | [4] 2.37 µM | [5] 2.1 µM | [6] 4.13 µM | [8] 4.78 µM | [9] 1.65 µM | [10] 1.21 µM | [11] 2.69 µM | [13] 6.15 µM | [14] 3.97 µM | [15] 2.38 µM | [16] 5.92 µM | [17] 1.46 µM | [18] 1.69 µM | [19] 2.61 µM
active: [20] 0.11 µM

Fc1ccc(C(OCCN2CCN(CCCCl)CC2)c2ccc(F)cc2)cc1
17.3 µM: [7]
inactive: [1] 28.4 µM | [2] 18.6 µM | [3] 40.2 µM | [4] 28.9 µM | [5] 18.5 µM | [6] 19.5 µM | [8] 12.5 µM | [9] 16.8 µM | [10] 21.6 µM | [11] 17.1 µM | [12] 19.9 µM | [13] 24.7 µM | [14] 23.1 µM | [15] 27.5 µM | [16] 34.8 µM | [17] 18.7 µM | [18] 38.4 µM | [19] 48.6 µM | [20] 18.8 µM

CCc1nc(N)nc(N)c1-c1ccc(N2CCNCC2)c([N+](=O)[O-])c1
inactive: [1] 5.2 µM | [2] 45.9 µM | [3] 4.74 µM | [4] 29.2 µM | [5] 11.5 µM | [6] 1.77 µM | [8] 27.4 µM | [9] 3.48 µM | [10] 12.4 µM | [11] 4.27 µM | [12] 5.65 µM | [13] > 100 µM | [14] 30.3 µM | [15] 6.7 µM | [16] 5.28 µM | [17] 10.6 µM | [18] 40.5 µM | [19] 91.2 µM | [20] 4.35 µM
35.7 µM: [7]
